Holding throughout (test): Kinase Profiler, residual kinase activity
Assay type in all cases: biochemical

For assay [1], the target named is T1, IRAK4 (Homo sapiens, UniProt Q9NWZ3).
T1 sequence (Q9NWZ3 1-460): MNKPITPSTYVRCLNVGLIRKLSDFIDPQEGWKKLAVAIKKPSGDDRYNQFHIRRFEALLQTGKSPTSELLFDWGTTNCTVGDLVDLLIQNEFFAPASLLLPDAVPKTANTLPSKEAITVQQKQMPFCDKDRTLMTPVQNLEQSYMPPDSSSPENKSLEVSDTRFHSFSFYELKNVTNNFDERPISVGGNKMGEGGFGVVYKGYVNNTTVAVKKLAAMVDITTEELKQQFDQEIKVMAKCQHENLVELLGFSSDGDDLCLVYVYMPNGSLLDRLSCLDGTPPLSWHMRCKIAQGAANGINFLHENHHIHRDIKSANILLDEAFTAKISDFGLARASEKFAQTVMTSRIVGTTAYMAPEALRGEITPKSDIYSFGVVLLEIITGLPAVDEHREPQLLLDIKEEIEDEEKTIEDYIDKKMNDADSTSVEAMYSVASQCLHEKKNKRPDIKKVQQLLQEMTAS
Particulars: read-out: percentage of the remaining kinase activity. From the text:
(§1) Kinase Profiler services provided by […]. (http://www.reactionbiology.com) were used to analyze the data of the 9 type-S protein kinase inhibitors against the 40 types of protein kinases.

Assay [2] deals with T2, AXL (Homo sapiens, UniProt P30530).
T2 construct: purchased Research Biology Corp. (http://www.reactionbiology.com)
T2 sequence (P30530 26-894): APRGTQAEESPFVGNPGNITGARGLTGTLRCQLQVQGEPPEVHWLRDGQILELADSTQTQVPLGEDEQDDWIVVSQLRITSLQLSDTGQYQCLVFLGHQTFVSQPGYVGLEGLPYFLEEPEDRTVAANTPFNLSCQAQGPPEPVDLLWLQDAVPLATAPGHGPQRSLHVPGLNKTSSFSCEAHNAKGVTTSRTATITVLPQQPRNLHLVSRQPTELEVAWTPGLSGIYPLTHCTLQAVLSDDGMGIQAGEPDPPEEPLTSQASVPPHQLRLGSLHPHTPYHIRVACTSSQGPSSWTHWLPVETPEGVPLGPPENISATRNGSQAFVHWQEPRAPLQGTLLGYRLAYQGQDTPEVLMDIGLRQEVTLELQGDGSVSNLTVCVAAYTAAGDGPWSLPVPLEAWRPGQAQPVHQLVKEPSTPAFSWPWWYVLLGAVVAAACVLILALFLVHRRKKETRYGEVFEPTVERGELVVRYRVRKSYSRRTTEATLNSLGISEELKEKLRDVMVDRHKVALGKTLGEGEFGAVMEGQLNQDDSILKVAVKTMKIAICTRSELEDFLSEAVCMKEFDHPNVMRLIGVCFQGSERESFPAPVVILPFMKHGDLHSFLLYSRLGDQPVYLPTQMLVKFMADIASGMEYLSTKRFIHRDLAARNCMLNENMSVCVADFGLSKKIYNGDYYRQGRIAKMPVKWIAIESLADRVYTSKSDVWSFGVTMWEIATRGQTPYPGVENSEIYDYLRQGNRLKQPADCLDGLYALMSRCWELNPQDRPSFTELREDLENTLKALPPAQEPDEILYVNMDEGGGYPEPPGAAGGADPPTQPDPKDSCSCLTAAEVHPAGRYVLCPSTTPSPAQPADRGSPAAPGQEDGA
Particulars: read-out: percentage of the remaining kinase activity.
Text: as §1

Assay [3] has as its target T3, OXSR1 (Homo sapiens, UniProt O95747).
T3 construct: purchased Research Biology Corp. (http://www.reactionbiology.com)
Particulars: read-out: percentage of the remaining kinase activity.
Text: as §1

The target of assay [4] is T4, FGFR2 (Homo sapiens, UniProt P21802).
T4 construct: purchased Research Biology Corp. (http://www.reactionbiology.com)
T4 sequence (P21802 22-821): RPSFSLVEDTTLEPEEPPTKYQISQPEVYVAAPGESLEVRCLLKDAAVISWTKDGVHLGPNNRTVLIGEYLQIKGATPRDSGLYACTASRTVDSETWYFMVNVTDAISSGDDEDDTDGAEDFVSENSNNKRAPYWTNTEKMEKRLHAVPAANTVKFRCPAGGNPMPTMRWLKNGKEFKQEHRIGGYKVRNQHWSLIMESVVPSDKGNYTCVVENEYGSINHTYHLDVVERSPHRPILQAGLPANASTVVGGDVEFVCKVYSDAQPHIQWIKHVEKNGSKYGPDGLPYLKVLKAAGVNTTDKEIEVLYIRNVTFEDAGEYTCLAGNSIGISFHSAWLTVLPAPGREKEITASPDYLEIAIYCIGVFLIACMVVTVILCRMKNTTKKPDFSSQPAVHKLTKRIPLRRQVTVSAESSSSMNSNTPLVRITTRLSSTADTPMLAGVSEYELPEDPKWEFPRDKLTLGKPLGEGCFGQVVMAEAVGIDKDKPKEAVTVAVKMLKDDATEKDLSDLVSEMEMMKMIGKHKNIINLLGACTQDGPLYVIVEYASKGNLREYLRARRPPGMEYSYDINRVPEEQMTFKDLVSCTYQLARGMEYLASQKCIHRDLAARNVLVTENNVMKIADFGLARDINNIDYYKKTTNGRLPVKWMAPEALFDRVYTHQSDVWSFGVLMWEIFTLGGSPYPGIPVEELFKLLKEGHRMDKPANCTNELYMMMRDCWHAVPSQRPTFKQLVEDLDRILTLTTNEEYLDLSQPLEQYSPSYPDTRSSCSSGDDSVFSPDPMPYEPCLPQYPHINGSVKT
Particulars: for remaining activity at 0.5 µM: read-out: percentage of the remaining kinase activity.
Text: as §1

In assay [5] the target is JAK2 (Homo sapiens, UniProt O60674). Particulars: read-out: percentage of the remaining kinase activity.
Chain of JAK2 (O60674 whole entry): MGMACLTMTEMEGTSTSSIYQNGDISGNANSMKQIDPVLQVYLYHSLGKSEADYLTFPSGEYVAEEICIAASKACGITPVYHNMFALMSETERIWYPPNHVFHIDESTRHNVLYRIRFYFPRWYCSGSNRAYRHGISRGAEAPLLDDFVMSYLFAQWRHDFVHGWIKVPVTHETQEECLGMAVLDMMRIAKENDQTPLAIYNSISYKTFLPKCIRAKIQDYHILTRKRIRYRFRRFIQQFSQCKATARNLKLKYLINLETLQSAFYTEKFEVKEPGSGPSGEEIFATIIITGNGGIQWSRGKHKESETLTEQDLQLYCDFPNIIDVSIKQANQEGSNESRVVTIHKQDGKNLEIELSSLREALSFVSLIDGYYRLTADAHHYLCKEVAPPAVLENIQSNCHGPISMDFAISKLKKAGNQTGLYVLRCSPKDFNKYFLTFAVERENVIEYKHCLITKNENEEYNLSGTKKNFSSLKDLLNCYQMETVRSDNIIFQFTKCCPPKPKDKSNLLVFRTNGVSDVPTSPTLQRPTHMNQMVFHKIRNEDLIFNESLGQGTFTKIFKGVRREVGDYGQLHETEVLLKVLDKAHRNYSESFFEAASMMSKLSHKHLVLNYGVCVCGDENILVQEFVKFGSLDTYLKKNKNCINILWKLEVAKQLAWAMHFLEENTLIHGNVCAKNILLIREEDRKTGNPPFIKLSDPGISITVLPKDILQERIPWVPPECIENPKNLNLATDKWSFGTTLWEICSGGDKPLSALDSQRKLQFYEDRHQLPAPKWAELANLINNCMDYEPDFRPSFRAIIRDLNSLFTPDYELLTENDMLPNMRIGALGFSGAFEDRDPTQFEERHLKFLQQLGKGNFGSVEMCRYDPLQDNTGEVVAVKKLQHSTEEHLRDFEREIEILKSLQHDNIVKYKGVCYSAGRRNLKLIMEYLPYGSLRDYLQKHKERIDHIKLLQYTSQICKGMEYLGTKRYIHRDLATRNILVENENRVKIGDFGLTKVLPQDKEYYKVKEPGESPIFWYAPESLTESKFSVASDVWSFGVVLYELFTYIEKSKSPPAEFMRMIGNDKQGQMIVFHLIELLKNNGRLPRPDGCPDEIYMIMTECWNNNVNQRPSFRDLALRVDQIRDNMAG
Text: as §1

Assay [6] deals with KDR (Homo sapiens, UniProt P35968). Particulars: read-out: percentage of the remaining kinase activity.
Chain of KDR (P35968 20-1356): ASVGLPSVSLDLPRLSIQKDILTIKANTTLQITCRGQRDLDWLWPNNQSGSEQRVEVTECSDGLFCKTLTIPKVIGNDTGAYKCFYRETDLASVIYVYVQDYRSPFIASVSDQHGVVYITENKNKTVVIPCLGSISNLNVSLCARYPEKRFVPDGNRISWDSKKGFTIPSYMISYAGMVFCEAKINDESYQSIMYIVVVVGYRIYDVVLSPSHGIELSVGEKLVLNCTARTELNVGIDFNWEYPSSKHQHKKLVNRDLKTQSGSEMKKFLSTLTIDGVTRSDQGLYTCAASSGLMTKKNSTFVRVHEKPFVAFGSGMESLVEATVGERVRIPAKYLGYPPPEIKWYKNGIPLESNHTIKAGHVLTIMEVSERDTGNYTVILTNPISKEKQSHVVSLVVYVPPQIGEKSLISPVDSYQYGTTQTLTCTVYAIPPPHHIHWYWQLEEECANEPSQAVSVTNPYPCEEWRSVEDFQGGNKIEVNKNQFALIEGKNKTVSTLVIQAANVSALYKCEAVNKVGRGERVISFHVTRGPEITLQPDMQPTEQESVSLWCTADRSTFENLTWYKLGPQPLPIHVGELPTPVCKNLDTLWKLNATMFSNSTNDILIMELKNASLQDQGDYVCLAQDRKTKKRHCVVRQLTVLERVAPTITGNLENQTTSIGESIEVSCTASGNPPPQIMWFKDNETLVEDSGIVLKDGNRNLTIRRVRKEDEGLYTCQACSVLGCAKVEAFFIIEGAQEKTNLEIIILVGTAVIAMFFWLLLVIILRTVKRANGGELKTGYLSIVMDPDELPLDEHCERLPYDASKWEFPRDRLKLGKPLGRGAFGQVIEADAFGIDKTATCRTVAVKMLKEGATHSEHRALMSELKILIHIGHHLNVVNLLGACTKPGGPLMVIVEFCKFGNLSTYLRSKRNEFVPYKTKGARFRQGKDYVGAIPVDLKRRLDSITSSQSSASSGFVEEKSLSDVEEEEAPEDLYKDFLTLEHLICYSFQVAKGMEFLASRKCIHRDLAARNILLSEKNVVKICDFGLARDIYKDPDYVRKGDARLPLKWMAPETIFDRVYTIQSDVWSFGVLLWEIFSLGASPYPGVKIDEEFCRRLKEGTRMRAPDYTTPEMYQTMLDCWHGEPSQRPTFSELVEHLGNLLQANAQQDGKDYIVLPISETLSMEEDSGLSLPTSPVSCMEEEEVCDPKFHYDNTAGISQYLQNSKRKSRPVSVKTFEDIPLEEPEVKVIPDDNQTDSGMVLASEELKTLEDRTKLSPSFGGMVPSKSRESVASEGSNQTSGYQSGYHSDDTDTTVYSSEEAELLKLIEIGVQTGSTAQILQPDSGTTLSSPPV
Text: as §1

The target in assay [7] is T5, INSR (Homo sapiens, UniProt P06213).
T5 construct: purchased Research Biology Corp. (http://www.reactionbiology.com)
T5 sequence (P06213 28-1382): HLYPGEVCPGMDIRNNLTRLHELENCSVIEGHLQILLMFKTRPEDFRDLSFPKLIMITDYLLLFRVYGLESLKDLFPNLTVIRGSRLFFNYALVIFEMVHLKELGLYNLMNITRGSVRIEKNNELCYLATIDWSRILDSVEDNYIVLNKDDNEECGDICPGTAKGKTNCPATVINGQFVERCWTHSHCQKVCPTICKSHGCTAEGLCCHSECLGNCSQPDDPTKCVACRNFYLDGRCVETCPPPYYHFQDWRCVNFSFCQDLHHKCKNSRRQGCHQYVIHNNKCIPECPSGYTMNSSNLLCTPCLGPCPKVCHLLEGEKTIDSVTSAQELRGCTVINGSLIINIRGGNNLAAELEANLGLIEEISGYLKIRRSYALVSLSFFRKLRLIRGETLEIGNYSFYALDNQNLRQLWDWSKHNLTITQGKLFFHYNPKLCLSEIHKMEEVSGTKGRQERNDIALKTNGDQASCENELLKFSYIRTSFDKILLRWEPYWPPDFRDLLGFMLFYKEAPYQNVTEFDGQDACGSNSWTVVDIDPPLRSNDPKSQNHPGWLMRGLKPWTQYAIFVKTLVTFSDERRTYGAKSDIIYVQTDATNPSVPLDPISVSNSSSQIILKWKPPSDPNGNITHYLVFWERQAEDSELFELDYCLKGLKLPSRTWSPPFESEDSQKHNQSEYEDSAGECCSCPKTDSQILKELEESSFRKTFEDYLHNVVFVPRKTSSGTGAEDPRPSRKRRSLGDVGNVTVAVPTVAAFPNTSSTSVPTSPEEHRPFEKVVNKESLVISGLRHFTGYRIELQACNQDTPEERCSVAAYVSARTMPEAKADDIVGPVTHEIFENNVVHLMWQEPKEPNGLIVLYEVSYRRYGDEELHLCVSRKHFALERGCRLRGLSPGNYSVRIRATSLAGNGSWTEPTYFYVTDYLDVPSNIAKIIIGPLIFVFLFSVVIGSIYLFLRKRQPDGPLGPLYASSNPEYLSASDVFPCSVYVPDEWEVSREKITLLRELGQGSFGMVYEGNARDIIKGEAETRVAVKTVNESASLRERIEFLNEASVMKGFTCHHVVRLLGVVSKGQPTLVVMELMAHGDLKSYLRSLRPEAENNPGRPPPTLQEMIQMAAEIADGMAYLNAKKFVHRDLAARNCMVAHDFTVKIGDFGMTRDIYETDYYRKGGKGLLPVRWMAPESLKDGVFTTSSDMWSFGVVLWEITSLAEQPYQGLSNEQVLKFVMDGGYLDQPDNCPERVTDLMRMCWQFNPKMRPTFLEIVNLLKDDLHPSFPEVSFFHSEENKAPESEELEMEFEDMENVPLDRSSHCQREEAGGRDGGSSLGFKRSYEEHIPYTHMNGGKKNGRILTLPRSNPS
The conditions noted are these: read-out: percentage of the remaining kinase activity.
Text: as §1

Assay [8] addresses DYRK1A (Homo sapiens, UniProt Q13627). Particulars: read-out: percentage of the remaining kinase activity.
Text: as §1

Assay [9] addresses AKT1 (Homo sapiens, UniProt P31749). Particulars: read-out: percentage of the remaining kinase activity.
Text: as §1

In assay [10] the target is T6, GSG2 (Homo sapiens, UniProt Q8TF76).
T6 sequence (Q8TF76 1-798): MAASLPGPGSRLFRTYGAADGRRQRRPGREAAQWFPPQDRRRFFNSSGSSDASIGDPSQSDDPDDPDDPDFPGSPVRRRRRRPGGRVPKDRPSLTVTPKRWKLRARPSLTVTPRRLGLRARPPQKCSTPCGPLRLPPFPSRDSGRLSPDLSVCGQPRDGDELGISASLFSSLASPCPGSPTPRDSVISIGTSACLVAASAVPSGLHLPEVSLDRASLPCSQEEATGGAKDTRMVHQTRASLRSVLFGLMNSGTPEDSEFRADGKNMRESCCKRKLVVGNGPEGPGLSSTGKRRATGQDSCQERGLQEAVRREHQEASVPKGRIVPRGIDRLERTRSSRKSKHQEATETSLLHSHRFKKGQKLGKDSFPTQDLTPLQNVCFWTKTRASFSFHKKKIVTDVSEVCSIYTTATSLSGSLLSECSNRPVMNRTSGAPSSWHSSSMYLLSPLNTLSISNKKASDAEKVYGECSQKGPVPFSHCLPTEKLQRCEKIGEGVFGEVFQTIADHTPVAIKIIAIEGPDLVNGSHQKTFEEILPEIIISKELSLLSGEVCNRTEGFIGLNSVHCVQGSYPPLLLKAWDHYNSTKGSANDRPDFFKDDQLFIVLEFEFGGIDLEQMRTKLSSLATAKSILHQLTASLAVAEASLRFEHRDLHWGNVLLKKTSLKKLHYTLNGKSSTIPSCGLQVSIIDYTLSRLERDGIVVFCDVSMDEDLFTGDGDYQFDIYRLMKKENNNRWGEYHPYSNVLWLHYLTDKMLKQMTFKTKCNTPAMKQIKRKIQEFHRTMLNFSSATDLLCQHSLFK
Particulars: read-out: percentage of the remaining kinase activity.
Text: as §1

Where two headings read alike, the source gives them in different places.

Chain of AKT1 (P31749 whole entry): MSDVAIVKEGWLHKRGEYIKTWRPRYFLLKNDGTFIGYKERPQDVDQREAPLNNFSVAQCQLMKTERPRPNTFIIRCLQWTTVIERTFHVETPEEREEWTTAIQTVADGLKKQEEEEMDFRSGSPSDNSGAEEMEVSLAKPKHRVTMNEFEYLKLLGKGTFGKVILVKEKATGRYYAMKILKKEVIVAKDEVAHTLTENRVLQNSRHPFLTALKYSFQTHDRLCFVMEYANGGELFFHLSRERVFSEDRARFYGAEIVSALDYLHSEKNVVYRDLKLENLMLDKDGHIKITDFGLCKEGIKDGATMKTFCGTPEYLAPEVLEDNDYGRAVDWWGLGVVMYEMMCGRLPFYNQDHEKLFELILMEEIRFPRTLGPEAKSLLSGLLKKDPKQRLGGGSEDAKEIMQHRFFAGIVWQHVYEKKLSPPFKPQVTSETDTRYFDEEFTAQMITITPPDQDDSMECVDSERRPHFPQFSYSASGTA

`COC1C(N(C)C(=O)C(N)CCC(=O)OC(C)(C)C)CC2OC1(C)n1c3ccccc3c3c4c(c5c6ccccc6n2c5c31)C(=O)NC4` (stereo not drawn) [Compound 6]: the remaining activity at 0.5 µM in [1] (IRAK4, inhibitor at 500 nM) was 63.5%; in assay [2] (AXL, inhibitor at 500 nM) it was 60.9%; in [3] (OXSR1, inhibitor at 500 nM), 111%; in assay [4] (FGFR2, inhibitor at 500 nM) it was 26.5%; in assay [5] (JAK2, inhibitor at 500 nM), 39.6%; in assay [6] (KDR, inhibitor at 500 nM) it was 42.4%. Besides, the remaining activity at 0.5 µM in assay [7] (INSR, inhibitor at 500 nM) came to 72.3%; in [8] (DYRK1A, inhibitor at 500 nM), 13.8%; in assay [9] (AKT1, inhibitor at 500 nM), 67.5%; in [10] (GSG2, inhibitor at 500 nM) it was 88%.
In the case of `COC1C(N(C)CCOc2cccc([N+](=O)[O-])c2)CC2OC1(C)n1c3ccccc3c3c4c(c5c6ccccc6n2c5c31)C(=O)NC4` (stereo not drawn) [Compound 8], the remaining activity at 0.5 µM in assay [1] amounted to 27.9%; in assay [2], 46.3%; in assay [3], 102%; in assay [4] it was 31.4%; in assay [5], 5.2%; in [6], 43.3%. In addition, the remaining activity at 0.5 µM was found to be 83.1% in [7], 25.3% in assay [8], 52.3% in assay [9] and 89.8% in assay [10].
Consider `COC1C(N(C)C(=O)C(N)Cc2c[nH]cn2)CC2OC1(C)n1c3ccccc3c3c4c(c5c6ccccc6n2c5c31)C(=O)NC4` (stereo not drawn) [Compound 1], for which the remaining activity at 0.5 µM was determined as 33.4% in assay [1] (IRAK4, inhibitor at 500 nM); 35.4% in assay [2] (AXL, inhibitor at 500 nM); 106% in [3] (OXSR1, inhibitor at 500 nM); 9.8% in assay [4] (FGFR2, inhibitor at 500 nM); 4.4% in [5] (JAK2, inhibitor at 500 nM); 6.5% in assay [6] (KDR, inhibitor at 500 nM). Further, the remaining activity at 0.5 µM is 23.1% in assay [7] (INSR, inhibitor at 500 nM); 0.4% in assay [8] (DYRK1A, inhibitor at 500 nM); 19.6% in assay [9] (AKT1, inhibitor at 500 nM); 69.9% in [10] (GSG2, inhibitor at 500 nM).
Consider `COC1C(N(C)C(=O)C(N)CCC(=O)O)CC2OC1(C)n1c3ccccc3c3c4c(c5c6ccccc6n2c5c31)C(=O)NC4` (stereo not drawn) [Compound 7], for which the remaining activity at 0.5 µM amounted to 46.8% in assay [1] (IRAK4, inhibitor at 500 nM); 26.8% in assay [2] (AXL, inhibitor at 500 nM); 100% in [3] (OXSR1, inhibitor at 500 nM); 9.2% in [4] (FGFR2, inhibitor at 500 nM); 1.5% in [5] (JAK2, inhibitor at 500 nM); 5.4% in assay [6] (KDR, inhibitor at 500 nM). Besides, the remaining activity at 0.5 µM in [7] (INSR, inhibitor at 500 nM) was found to be 32.8%; in assay [8] (DYRK1A, inhibitor at 500 nM), 0.6%; in assay [9] (AKT1, inhibitor at 500 nM), 31.5%; in assay [10] (GSG2, inhibitor at 500 nM) it was 69.9%.
On to `COC1C(N(C)C(=O)C(N)Cc2cn(C(=O)OC(C)(C)C)c3ccccc23)CC2OC1(C)n1c3ccccc3c3c4c(c5c6ccccc6n2c5c31)C(=O)NC4` (stereo not drawn) [Compound 2], for which the remaining activity at 0.5 µM in assay [1] (IRAK4, inhibitor at 500 nM) amounted to 101%; in [2] (AXL, inhibitor at 500 nM), 100%; in assay [3] (OXSR1, inhibitor at 500 nM), 116%; in [4] (FGFR2, inhibitor at 500 nM), 88.4%; in assay [5] (JAK2, inhibitor at 500 nM), 70%; in assay [6] (KDR, inhibitor at 500 nM), 102%. In addition, the remaining activity at 0.5 µM in assay [7] (INSR, inhibitor at 500 nM) worked out at 97.9%; in assay [8] (DYRK1A, inhibitor at 500 nM), 88.6%; in assay [9] (AKT1, inhibitor at 500 nM), 97.6%; in [10] (GSG2, inhibitor at 500 nM), 110%.
`COC1C(N(C)C(=O)C(N)Cc2ccc(OC(C)(C)C)cc2)CC2OC1(C)n1c3ccccc3c3c4c(c5c6ccccc6n2c5c31)C(=O)NC4` (stereo not drawn) [Compound 4]: the remaining activity at 0.5 µM in assay [1] (IRAK4, inhibitor at 500 nM) worked out at 87.4%; in [2] (AXL, inhibitor at 500 nM), 77.2%; in assay [3] (OXSR1, inhibitor at 500 nM) it was 110%; in assay [4] (FGFR2, inhibitor at 500 nM), 43.2%; in [5] (JAK2, inhibitor at 500 nM) it was 36.4%; in assay [6] (KDR, inhibitor at 500 nM), 50.8%. In addition, the remaining activity at 0.5 µM was determined as 84.8% in assay [7] (INSR, inhibitor at 500 nM); 17.8% in [8] (DYRK1A, inhibitor at 500 nM); 79.6% in assay [9] (AKT1, inhibitor at 500 nM); 102% in assay [10] (GSG2, inhibitor at 500 nM). For the same compound, the “inhibitory effect on FGFR2” value in assay [4] (in words) is “had an inhibitory effect on FGFR2”.
As to `CN[C@@H]1C[C@H]2O[C@@](C)([C@@H]1OC)n1c3ccccc3c3c4c(c5c6ccccc6n2c5c31)C(=O)NC4` [STU, staurosporine, reference compound], the remaining activity at 0.5 µM in [1] came out at 1.6%; in assay [2], 8.8%; in assay [3] it was 15.8%; in assay [5] (JAK2, inhibitor at 500 nM), 0.8%; in assay [7], 16.2%; in [9], 3.8%. The remaining activity at 0.5 µM in [10] (GSG2, inhibitor at 500 nM) was 9%.
Take `COC1C(N(C)C(=O)C(N)Cc2ccc(O)cc2)CC2OC1(C)n1c3ccccc3c3c4c(c5c6ccccc6n2c5c31)C(=O)NC4` (stereo not drawn) [Compound 5]: the remaining activity at 0.5 µM in assay [1] (IRAK4, inhibitor at 500 nM) was 85.9%; in [2] (AXL, inhibitor at 500 nM), 60.3%; in assay [3] (OXSR1, inhibitor at 500 nM) it was 109%; in [4] (FGFR2, inhibitor at 500 nM) it was 21.7%; in assay [5] (JAK2, inhibitor at 500 nM) it was 19.4%; in [6] (KDR, inhibitor at 500 nM), 16.3%. For the same compound, the remaining activity at 0.5 µM was 69.1% in [7] (INSR, inhibitor at 500 nM); 0.6% in assay [8] (DYRK1A, inhibitor at 500 nM); 66.8% in [9] (AKT1, inhibitor at 500 nM); 89.5% in assay [10] (GSG2, inhibitor at 500 nM).

The term remaining activity denotes the signal under treatment as a percentage of the control signal.
